The target in assay [1] is T1, wt human TYK2, catalytic site (Homo sapiens, UniProt P29597).
T1 construct: 2 nM wt human TYK2, catalytic site (SignalChem/CAN); purchased SignalChem/CAN
T1 sequence (P29597 897-1176 limits assumed): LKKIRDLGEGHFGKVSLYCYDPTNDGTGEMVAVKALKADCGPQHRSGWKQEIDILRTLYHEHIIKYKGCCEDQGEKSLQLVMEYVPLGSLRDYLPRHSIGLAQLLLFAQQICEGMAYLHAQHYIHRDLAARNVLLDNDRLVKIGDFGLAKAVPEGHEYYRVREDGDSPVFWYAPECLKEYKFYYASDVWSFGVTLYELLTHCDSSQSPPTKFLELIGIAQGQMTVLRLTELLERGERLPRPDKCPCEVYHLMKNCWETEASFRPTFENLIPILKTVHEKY
The assay can be described thus: HTRF KinEASE assay, TYK2. In kind it is biochemical. The settings on record: 1 μM ATP; read-out: IC50, inhibitory activity toward TYK2. As to the method:
Basic protocol for HTRF KinEASE assay (Cisbio/FRA) inhibitor studies involved two steps: Enzymatic step: Addition of 4 μl of test compound in corresponding DMSO dilutions, 4 μl of kinase/substrate mixture, 2 μl of ATP into 384 well small volume plates. Incubation for at least 30 minutes at room temperature.
Detection step: Addition of 5 μl antibody and 5 μl streptavidin-XL665, read plate after 60 minutes. Data analysis of emission ratios according to KinEASE assay protocol.
Kinase and assay components were adjusted to final concentrations according to the kit protocol. For TYK2: 2 nM wt human TYK2, catalytic site (SignalChem/CAN), 1 μM HTRF KinEASE-TK Substrate-biotin, 1 μM ATP in 1× Kinase Buffer
A general note: In TR-FRET formats the signal depends on donor and acceptor labels being close together.

Assay [2] concerns the target T2, wt human NUAK1, full length (Homo sapiens, UniProt O60285).
T2 construct: 8 nM wt human NUAK1, full length (ThermoFisher/USA); purchased ThermoFisher/USA
T2 sequence (O60285 1-661): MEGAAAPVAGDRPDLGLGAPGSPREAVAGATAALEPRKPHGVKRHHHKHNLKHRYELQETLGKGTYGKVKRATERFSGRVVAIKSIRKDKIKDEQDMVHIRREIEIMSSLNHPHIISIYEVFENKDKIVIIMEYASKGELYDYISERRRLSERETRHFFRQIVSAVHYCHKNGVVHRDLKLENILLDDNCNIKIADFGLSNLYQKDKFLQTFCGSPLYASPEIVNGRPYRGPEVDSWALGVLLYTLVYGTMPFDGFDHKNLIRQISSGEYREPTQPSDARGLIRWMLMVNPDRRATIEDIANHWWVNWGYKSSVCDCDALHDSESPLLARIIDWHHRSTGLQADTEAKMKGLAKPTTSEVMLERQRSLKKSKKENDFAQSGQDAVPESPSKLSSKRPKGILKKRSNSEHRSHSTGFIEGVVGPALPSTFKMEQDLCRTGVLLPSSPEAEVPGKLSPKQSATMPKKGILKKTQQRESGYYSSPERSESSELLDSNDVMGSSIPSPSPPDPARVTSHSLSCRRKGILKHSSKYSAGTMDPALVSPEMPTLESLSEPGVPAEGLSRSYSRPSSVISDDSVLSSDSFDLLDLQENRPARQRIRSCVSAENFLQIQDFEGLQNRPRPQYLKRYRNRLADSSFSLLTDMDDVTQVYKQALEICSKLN
In words: TR-FRET LanthaScreen Eu Kinase Binding Assay, NUAK1. The note with it: 5 nM Kinase Tracer 236; read-out: IC50, inhibitory activity toward NUAK1. Summed up: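 TR-FRET tracer-displacement binding with 8 nM full-length wild-type human NUAK1, 2 nM Eu-anti-His antibody and 5 nM Kinase Tracer 236 in 1× Kinase Buffer A (final). Compound, kinase/antibody and tracer incubated 1 h at room temperature; emission ratios analysed per kit protocol.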

Turning to `Nc1ccc2c(c1)-c1[nH]ncc1N=C(c1c(F)cccc1F)N2` [Compound 103, 5-(2,6-difluorophenyl)-1,6-dihydrobenzo[d]pyrazolo[3,4-f][1,3]diazepin-9-amine], the results for the IC50 in assay [1] and in assay [2] were 100 to 1000 nM and 10 to 100 nM, respectively.
For `O=C(NC1CCOCC1)c1ccc2c(n1)N=C(c1c(F)cccc1F)Nc1cn[nH]c1-2` [Compound 105, 5-(2,6-difluorophenyl)-N-(tetrahydro-2H-pyran-4-yl)-1,4-dihydropyrazolo[4,3-d]pyrido[3,2-f][1,3]diazepine-8-carboxamide], in that order: 10 to 100 nM and 100 to 1000 nM.
For `COc1cccc(F)c1C1=Nc2cn[nH]c2-c2ccccc2N1` [Compound 114, 5-(2-fluoro-6-methoxyphenyl)-1,6-dihydrobenzo[d]pyrazolo[3,4-f][1,3]diazepine], in that order: 100 to 1000 nM and 100 to 1000 nM.
`Cc1ccc2c(c1)-c1[nH]ncc1N=C(c1c(F)cccc1[N+](=O)[O-])N2` [Compound 125, 5-(2-fluoro-6-nitrophenyl)-9-methyl-1,6-dihydrobenzo[d]pyrazolo[3,4-f][1,3]diazepine]: the IC50 in assay [1] lay in the range of 100 to 1000 nM; in assay [2], 10 to 100 nM.
With `Cc1ccc2c(c1)-c1[nH]ncc1N=C(c1c(F)cc(NCCF)cc1F)N2` [Compound 126, 3,5-difluoro-N-(2-fluoroethyl)-4-(9-methyl-1,6-dihydrobenzo[d]pyrazolo[3,4-f][1,3]diazepin-5-yl)aniline], the values for the IC50 in assay [1] and in assay [2] were 100 to 1000 nM and 10 to 100 nM, respectively.
In the same order, the values of `COc1cc2c(cn1)NC(c1c(F)cccc1F)=Nc1cn[nH]c1-2` [Compound 127, 5-(2,6-difluorophenyl)-9-methoxy-1,6-dihydropyrazolo[4,3-d]pyrido[4,3-f][1,3]diazepine] are 10 to 100 nM and 10 to 100 nM.
In the same order, the values of `Fc1cccc(F)c1C1=Nc2ccccc2-c2[nH]nc(Cl)c2N1` [Compound 135, 3-chloro-5-(2,6-difluorophenyl)-1,4-dihydrobenzo[d]pyrazolo[3,4-f][1,3]diazepine] are 10 to 100 nM and 10 to 100 nM.
As for `Cc1cc(F)c2c(c1)-c1[nH]ncc1NC(c1c(F)cccc1F)=N2` [Compound 138, 5-(2,6-difluorophenyl)-7-fluoro-9-methyl-1,4-dihydrobenzo [d]pyrazolo[3,4-f][1,3]diazepine], the IC50 in assay [1] lay in the range of 100 to 1000 nM; in assay [2], 10 to 100 nM.
In the same order, the values of `Cc1ccc2c(c1)-c1[nH]nc(Cl)c1NC(c1c(F)cccc1F)=N2` [Compound 143, 3-chloro-5-(2,6-difluorophenyl)-9-methyl-1,4-dihydrobenzo[d]pyrazolo [3,4-f][1,3]diazepine] are 100 to 1000 nM and 10 to 100 nM.
In the same order, the values of `CSc1n[nH]c2c1NC(c1c(F)cccc1F)=Nc1ccccc1-2` [Compound 146, 5-(2,6-difluorophenyl)-3-(methylthio)-1,4-dihydrobenzo[d]pyrazolo [3,4-f][1,3]diazepine] are 100 to 1000 nM and 100 to 1000 nM.
In the same order, the values of `Fc1cccc(F)c1C1=Nc2cn[nH]c2-c2cc(Cl)ncc2N1` [Compound 147, 9-chloro-5-(2,6-difluorophenyl)-1,6-dihydropyrazolo[4,3-d]pyrido[4,3-f][1,3]diazepine] are 10 to 100 nM and 10 to 100 nM.
As for `OCCNc1cc(F)c(C2=Nc3c[nH]nc3-c3ccccc3N2)c(F)c1` [Compound 150, 2-((4-(2,6-dihydrobenzo[d]pyrazolo[3,4-f][1,3]diazepin-5-yl)-3,5-difluorophenyl)amino)ethan-1-ol], the IC50 in assay [1] and in assay [2] was 100 to 1000 nM throughout.
On to `Cc1ccc2c(c1)-c1[nH]ncc1NC(c1c(Cl)cccc1Cl)=N2` [Compound 152, 5-(2,6-dichlorophenyl)-9-methyl-1,4-dihydrobenzo[d]pyrazolo[3,4-f][1,3]diazepine], for which the 50% inhibitory concentration (IC50) in assay [1] and in assay [2] was 100 to 1000 nM each time.
For `Fc1cccc(Cl)c1C1=Nc2cc(OC3CCOCC3)ccc2-c2[nH]ncc2N1` [Compound 155, 5-(2-chloro-6-fluorophenyl)-8-((tetrahydro-2H-pyran-4-yl)oxy)-1,4-dihydrobenzo[d]pyrazolo[3,4-f][1,3]diazepine], the IC50 in assay [1] and in assay [2] was 10 to 100 nM each time.
As to `Cc1cc2c(cc1C(=O)O)NC(c1c(F)cccc1F)=Nc1cn[nH]c1-2` [Compound 156, 5-(2,6-difluorophenyl)-9-methyl-1,6-dihydrobenzo[d]pyrazolo[3,4-f][1,3]diazepine-8-carboxylic acid], the half-maximal inhibitory concentration (IC50) fell in the range of 10 to 100 nM in assay [1] and 100 to 1000 nM in assay [2].
In the case of `Cc1cc2c(cc1C(=O)NC1CCOCC1)N=C(c1c(F)cccc1F)Nc1cn[nH]c1-2` [Compound 157, 5-(2,6-difluorophenyl)-9-methyl-N-(tetrahydro-2H-pyran-4-yl)-1,4-dihydrobenzo[d]pyrazolo[3,4-f][1,3]diazepine-8-carboxamide], the half-maximal inhibitory concentration (IC50) in assay [1] was under 10 nM; in assay [2], 100 to 1000 nM.
For `COc1ccc2c(c1)N=C(c1c(F)cccc1Cl)Nc1cn[nH]c1-2` [Compound 158, 5-(2-chloro-6-fluorophenyl)-8-methoxy-1,4-dihydrobenzo[d]pyrazolo[3,4-f][1,3]diazepine], in that order: 10 to 100 nM and 10 to 100 nM.
In the same order, the values of `Fc1cccc(F)c1C1=Nc2cc(-c3ccn[nH]3)ccc2-c2[nH]ncc2N1` [Compound 159, 5-(2,6-difluorophenyl)-8-(1H-pyrazol-5-yl)-1,4-dihydrobenzo[d]pyrazolo[3,4-f][1,3]diazepine] are 10 to 100 nM and 10 to 100 nM.
For `Fc1cccc(Cl)c1C1=Nc2cc(-c3ccn[nH]3)ccc2-c2[nH]ncc2N1` [Compound 160, 5-(2-chloro-6-fluorophenyl)-8-(1H-pyrazol-5-yl)-1,4-dihydrobenzo[d]pyrazolo[3,4-f][1,3]diazepine], in that order: 10 to 100 nM and 10 to 100 nM.
Consider `Cc1ccc2c(c1)-c1[nH]ncc1NC(c1c(F)cccc1Br)=N2` [Compound 161, 5-(2-bromo-6-fluorophenyl)-9-methyl-1,4-dihydrobenzo[d]pyrazolo[3,4-f][1,3]diazepine], for which the IC50 in assay [1] fell in the range of 100 to 1000 nM; in assay [2], 10 to 100 nM.
In the same order, the values of `CC(=O)Nc1cccc(-c2ccc3c(c2)N=C(c2c(F)cccc2F)Nc2cn[nH]c2-3)c1` [Compound 162, N-(3-(5-(2,6-difluorophenyl)-1,4-dihydrobenzo[d]pyrazolo[3,4-f][1,3]diazepin-8-yl)phenyl)acetamide] are under 10 nM and 10 to 100 nM.
For `Cc1ccc2c(c1)-c1[nH]ncc1NC(c1c(F)cccc1I)=N2` [Compound 163, 5-(2-fluoro-6-iodophenyl)-9-methyl-1,4-dihydrobenzo[d]pyrazolo[3,4-f][1,3]diazepine], in that order: 100 to 1000 nM and 100 to 1000 nM.
In the same order, the values of `COC(=O)Nc1ccc2c(c1)N=C(c1c(F)cccc1F)Nc1c[nH]nc1-2` [Compound 164, methyl(5-(2,6-difluorophenyl)-2,4-dihydrobenzo[d]pyrazolo[3,4-f][1,3]diazepin-8-yl)carbamate] are 10 to 100 nM and 10 to 100 nM.
Take `COC(=O)Nc1ccc2c(c1)-c1[nH]ncc1NC(c1c(F)cccc1F)=N2` [Compound 165, methyl(5-(2,6-difluorophenyl)-1,4-dihydrobenzo[d]pyrazolo[3,4-f][1,3]diazepin-9-yl)carbamate]: the half-maximal inhibitory concentration (IC50) was 100 to 1000 nM in assay [1] and under 10 nM in assay [2].
Take `Cc1cc(F)c2c(c1)-c1[nH]nc(Cl)c1NC(c1c(F)cccc1F)=N2` [Compound 166, 3-chloro-5-(2,6-difluorophenyl)-7-fluoro-9-methyl-1,4-dihydrobenzo[d]pyrazolo[3,4-f][1,3]diazepine]: the results for the IC50 in assay [1] and in assay [2] were 100 to 1000 nM and 10 to 100 nM, respectively.

In general, IC50 refers to the concentration that gives 50% inhibition.

The record behind these values is patent US20220380374A1, “1,4-DIHYDROBENZO[D]PYRAZOLO[3,4-F][1,3]DIAZEPINE DERIVATIVES AND RELATED COMPOUNDS AS LRRK2, NUAK1 AND/OR TYK2 KINASE MODULATORS FOR THE TREATMENT OF E.G. AUTOIMMUNE DISEASE” (Origenis GMBH, priority 2019, published 2022).
